# System: xanthurenic acid receptor
# Assay: Screening: displacement of [3H]-XA binding to synaptic membranes at a fixed concentration
# Conditions: compound at 10 μM; 200 nM [3H]-XA, synaptic membranes; xanthurenic acid set arbitrarily to 100%
# Procedure: If this concentration produces the same or greater displacement than the same concentration of non-radiolabelled XA, then an IC50 is determined. […] The incubation time is 25 min. […] The filters are placed in scintillation vials to which 5 ml of Rotiszint® (Roth) are added and the vials are counted in a Beckman LS6000sc liquid scintillation counter. Specific binding is given as the difference between total binding and nonspecific binding. The percentage inhibition of binding that the synthetic compounds produce is calculated for each compound in relation to its positive control.
row,SMILES,% inhibition of XA binding at 10 μM*
1,"Cl.Nc1ccc(N2CCCCC2)c2c(O)cc(C(=O)O)nc12 [Compound 77c, 5-(piperidin-1-yl)-8-amino-4-hydroxy-quinoline-2-carboxylic acid hydrochloride]",6%
2,"Nc1cc(O)cc2c(O)cc(C(=O)O)nc12 [Compound 79d, 6-hydroxy-8-amino-4-hydroxy-quinoline-2-carboxylic acid]",60%
3,"Cl.O=C(O)c1cc(N2CCNCC2)c2cccc(O)c2n1 [Compound 87c, 8-hydroxy-4-(piperazin-1-yl)-quinoline-2-carboxylic acid hydrochloride]",183%
4,"Cl.Nc1cccc2c(CCc3ccccc3)cc(C(=O)O)nc12 [Compound 94c, 8-amino-4-(2-phenyleth-1-yl)-quinoline-2-carboxylic acid hydrochloride]",37%
5,"Cl.NCCCc1cc(C(=O)O)nc2c(N)cccc12 [Compound 95c, 8-amino-4-(3-amino-prop-1-yl)-quinoline-2-carboxylic acid hydrochloride]",57%
6,"Cl.Nc1cccc2c(CCCO)cc(C(=O)O)nc12 [Compound 96c, 8-amino-4-(3-hydroxy-prop-1-yl)-quinoline-2-carboxylic acid hydrochloride]",17%
7,"O=C(O)c1cc(O)c2c(C(F)(F)F)ccc(O)c2n1 [Compound 98c, 4,8-dihydroxy-5-trifluoromethyl-quinoline-2-carboxylic acid]",94%
8,"Cl.O=C(O)c1cc(N2CCOCC2)c2cccc(O)c2n1 [Compound 99c, 8-hydroxy-4-(morpholin-1-yl)-quinoline-2-carboxylic acid hydrochloride]",220%
9,"Cl.O=C(O)c1cc(N2CCCCC2)c2cccc(O)c2n1 [Compound 100c, 8-hydroxy-4-(piperidin-1-yl)-quinoline-2-carboxylic acid hydrochloride]",137%
10,"Cl.Nc1cccc2c(N3CCCCC3)cc(C(=O)O)nc12 [Compound 101c, 8-amino-4-(piperidin-1-yl)-quinoline-2-carboxylic acid hydrochloride]",20%
11,"Cl.O=C(O)c1cc(O)c2cccc(N3CCCCC3)c2n1 [Compound 102b, 4-hydroxy-8-(piperidin-1-yl)-quinoline-2-carboxylic acid hydrochloride]",92%

# Results, then the molecule that gave them:
row,% inhibition of XA binding at 10 μM*,SMILES
1,3%,"CNc1cccc2c(O)cc(C(=O)O)nc12.Cl [Compound 103b, 4-hydroxy-8-(methyl)amino-quinoline-2-carboxylic acid hydrochloride]"
2,40%,"Cl.O=C(O)c1cc(O)c2cccc(N3CCOCC3)c2n1 [Compound 104b, 4-hydroxy-8-(morpholin-1-yl)-quinoline-2-carboxylic acid hydrochloride]"
3,66%,"Cl.O=C(O)c1cc(O)c2cccc(N3CCN(Cc4ccccc4)CC3)c2n1 [Compound 105b, 8-(4-benzyl-piperazin-1-yl)-4-hydroxy-quinoline-2-carboxylic acid hydrochloride]"
4,29%,"CN(c1ccccc1)c1cccc2c(O)cc(C(=O)O)nc12.Cl [Compound 106b, 8-[phenyl(methyl)amino]-4-hydroxy-quinoline-2-carboxylic acid hydrochloride]"
5,43%,"CN1CCN(c2cccc3c(O)cc(C(=O)O)nc23)CC1.Cl [Compound 107b, 8-(4-methyl-piperazin-1-yl)4-hydroxy-quinoline-2-carboxylic acid hydrochloride]"
6,62%,"Cl.O=C(O)c1cc(O)c2cccc(N3CCNCC3)c2n1 [Compound 108b, 4-hydroxy-8-(piperazin-1-yl)-quinoline-2-carboxylic acid hydrochloride]"
7,112%,"Cl.O=C(O)c1cc(O)c2cccc(Nc3ccccn3)c2n1 [Compound 109b, 4-hydroxy-8-(pyridin-2-yl-amino)-quinoline-2-carboxylic acid hydrochloride]"

# From patent US20060183909A1, “Compositions derived from quinoline and quinoxaline, preparation and use thereof” (priority 2001, published 2006)
